This assay has as its target T1, sigma 1 (h) (Homo sapiens, UniProt Q99720).
T1 construct: incubating Jurkat cell membranes (10-20 mg protein per tube) with [^3H](+) pentazocine; endogenous in cells; host or cells: Jurkat cell membranes
The assay is described as follows: σ1 binding assay ([3H](+)pentazocine displacement, Jurkat cell membranes). The note with it: [3H](+)pentazocine 15 nM, 37° C., 2 hours; for inhibition at 0.01 µM: compound at 10 nM, read-out: Sigma-1 receptor % inhibition 10 nM; for inhibition at 0.1 µM: compound at 100 nM, read-out: Sigma-1 receptor % inhibition 100 nM. As to the method:
The σ1 binding assays were performed according to Ganapathy et al (Ganapathy, M. E. et al. (1999), J. Pharmacol. Exp. Ther., 28:251-260). The σ1 binding assay was carried out by incubating Jurkat cell membranes (10-20 mg protein per tube) with [^3H](+) pentazocine a selective S1R ligand (15 nM) and a range of concentration of tested compounds, at 37° C. for 2 hours in 5 mM tris/HCl buffer (pH=7.4). The inhibition of [3H]-(+)-pentazocine binding assay is mainly used to determine the inhibition constant (Ki) of potential SIR ligands. These assays are performed with a single concentration of [^3H]-(+)-pentazocine at a concentration near its KD and increasing concentrations of non-radioactive ligands.

This is an account of results in patent US12612371B2, “Sigma-1 receptor ligands and therapeutic uses thereof” (UNIVERSITE DE STRASBOURG, priority 2019, dated 2026).

T1 sequence (Q99720 whole entry): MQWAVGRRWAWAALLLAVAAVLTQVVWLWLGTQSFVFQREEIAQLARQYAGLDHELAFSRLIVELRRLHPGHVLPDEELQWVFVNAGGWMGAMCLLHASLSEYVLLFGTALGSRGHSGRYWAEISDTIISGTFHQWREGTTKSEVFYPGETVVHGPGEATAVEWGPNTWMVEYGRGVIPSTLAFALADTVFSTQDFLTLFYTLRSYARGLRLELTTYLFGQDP

The term inhibition denotes the change of the read-out against control, counted positive when it falls. As to `O=c1c(-c2ccccc2)ccnn1CCCCN1CCCC(c2ccccc2)C1` (centres unmarked) [10r, 4-phenyl-2-(4-(3-phenylpiperidin-1-yl)butyl)pyridazin-3(2H)-one], the inhibition at 0.01 µM is 78.7% and the inhibition at 0.1 µM amounted to 92.1%.
In the case of `O=c1c(-c2ccccc2)ccnn1CCCCN1CCC(c2ccccc2)CC1` [10s, 4-phenyl-2-(4-(4-phenylpiperidin-1-yl)butyl)pyridazin-3(2H)-one], the inhibition at 0.01 µM worked out at 64.6%.
On to `O=c1c(-c2ccccc2)ccnn1CCCCN1CCCC(CO)C1` (centres unmarked) [10t, 2-(4-(3-(hydroxymethyl)piperidin-1-yl)butyl)-4-phenylpyridazin-3(2H)-one], for which the inhibition at 0.01 µM was 9.7% and the inhibition at 0.1 µM came out at 38.2%.
For `O=c1c(-c2ccccc2)ccnn1CCCCN1CCCCC1CCO` (centres unmarked) [10u, 2-(4-(2-(2-hydroxyethyl)piperidin-1-yl)butyl)-4-phenylpyridazin-3(2H)-one], the inhibition at 0.1 µM is 26.5%.
In the case of `O=c1c(-c2ccccc2)ccnn1CCCCN1CCOC(c2ccccc2)C1` (centres unmarked) [10w, 4-phenyl-2-(4-(2-phenylmorpholino)butyl)pyridazin-3(2H)-one], the inhibition at 0.01 µM is 37.6% and the inhibition at 0.1 µM was found to be 79.4%.
On to `CC1CN(CCCCn2nccc(-c3ccccc3)c2=O)CC(C)O1` (centres unmarked) [10x, 2-(4-(2,6-dimethylmorpholino)butyl)-4-phenylpyridazin-3(2H)-one], for which the inhibition at 0.01 µM was 34.6% and the inhibition at 0.1 µM turned out to be 76.2%.
`O=c1c(-c2ccccc2)ccnn1CCCCN1CCN(Cc2ccccc2)CC1` [10z, 2-[4-(4-benzylpiperazin-1-yl)butyl]-4-phenyl-2,3-dihydropyridazin-3-one]: the inhibition at 0.01 µM is 64.2%.
For the molecule `O=c1c(-c2ccccc2)ccnn1CCCCN1CCC(Cc2ccccc2)CC1` [11a, 2-[4-(4-benzylpiperidin-1-yl)butyl]-4-phenyl-2,3-dihydropyridazin-3-one], the inhibition at 0.01 µM turned out to be 83.4%.
The same measure, in the same setting: as for `CCN(CCCCn1nccc(-c2ccccc2)c1=O)Cc1ccccc1` [11b, 2-{4-[benzyl(ethyl)amino]butyl}-4-phenyl-2,3-dihydropyridazin-3-one], the figure is 73.9%; as for `O=c1c(-c2ccccc2)ccnn1CCCCN1CCN(c2ccccc2)CC1` [11d, 4-phenyl-2-[4-(4-phenylpiperazin-1-yl)butyl]-2,3-dihydropyridazin-3-one], 16.1%.
On the same count and under the same terms, the value for `O=c1c(-c2ccccc2)ccnn1CCCCN1CCC[C@H]2CCCC[C@@H]21` [11e, 2-{4-[(4aR,8aS)-decahydroquinolin-1-yl]butyl}-4-phenyl-2,3-dihydropyridazin-3-one] was 7.4%; that for `O=c1c(-c2ccc(F)cc2)ccnn1CCCCN1CCOCC1` [11h, 4-(4-fluorophenyl)-2-(4-morpholinobutyl)pyridazin-3(2H)-one] was 12%; that for `O=c1c(-c2ccc(Cl)cc2)ccnn1CCCCN1CCOCC1` [11k, 4-(4-chlorophenyl)-2-[4-(morpholin-4-yl)butyl]-2,3-dihydropyridazin-3-one] was 1.9%.
The same measure, in the same setting: the value for `O=c1c(-c2cccc(Cl)c2)ccnn1CCCCN1CCOCC1` [11l, 4-(3-chlorophenyl)-2-[4-(morpholin-4-yl)butyl]-2,3-dihydropyridazin-3-one] was 69.1%; that for `O=c1c(-c2ccccc2Cl)ccnn1CCCCN1CCOCC1` [11m, 4-(2-chlorophenyl)-2-[4-(morpholin-4-yl)butyl]-2,3-dihydropyridazin-3-one] was 5.04%.
For `O=c1c(-c2ccc(C(F)(F)F)cc2)ccnn1CCCCN1CCOCC1` [11n, 2-[4-(morpholin-4-yl)butyl]-4-[4-(trifluoromethyl)phenyl]-2,3-dihydropyridazin-3-one], the inhibition at 0.01 µM is 6.13%.
On the same count and under the same terms, as for `O=c1c(-c2ccsc2)ccnn1CCCCN1CCOCC1` [11o, 2-[4-(morpholin-4-yl)butyl]-4-(thiophen-3-yl)-2,3-dihydropyridazin-3-one], the figure is 33.4%; as for `O=c1c(-c2ccoc2)ccnn1CCCCN1CCOCC1` [11p, 4-(furan-3-yl)-2-[4-(morpholin-4-yl)butyl]-2,3-dihydropyridazin-3-one], 15.6%.
In the case of `Cc1cc(-c2ccccc2)c(=O)n(CCCCN(C)Cc2ccccc2)n1` [11v, 2-{4-[benzyl(methyl)amino]butyl}-6-methyl-4-phenyl-2,3-dihydropyridazin-3-one], the inhibition at 0.1 µM was found to be 86%.
The same measure, in the same setting: the value for `Cc1cc(-c2ccccc2)c(=O)n(CCCCN2CCCCCC2)n1` [11w, 2-[4-(azepan-1-yl)butyl]-6-methyl-4-phenyl-2,3-dihydropyridazin-3-one] was 53.9%.
As to `O=c1c(CCc2ccccc2)ccnn1CCCCN1CCOCC1` [21a, 2-[4-(morpholin-4-yl)butyl]-4-(2-phenylethyl)-2,3-dihydropyridazin-3-one], the inhibition at 0.01 µM amounted to 1.1%.
On the same count and under the same terms, the value for `O=c1c(N2CCCCC2)ccnn1CCCCN1CCOCC1` [25a, 2-(4-morpholinobutyl)-4-(piperidin-1-yl)pyridazin-3(2H)-one] was 15.8%; that for `CN(Cc1ccccc1)CC(O)CCn1nccc(-c2ccccc2)c1=O` (centres unmarked) [33a, 2-(4-(benzyl(methyl)amino)-3-hydroxybutyl)-4-phenylpyridazin-3(2H)-one] was 12.3%.
The same measure, in the same setting: as for `Cc1ncc(-c2ccccc2)c(=O)n1CCCCN1CCOCC1` [40a, 2-methyl-3-(4-morpholinobutyl)-5-phenylpyrimidin-4(3H)-one], the figure is 1.4%; as for `O=c1c(-c2ccccc2)cncn1CCCCN1CCOCC1` [40b, 3-[4-(morpholin-4-yl)butyl]-5-phenyl-3,4-dihydropyrimidin-4-one], 1.4%.
For the molecule `O=c1c(-c2ccccc2)cccn1CCCCN1CCOCC1` [41a, 1-[4-(morpholin-4-yl)butyl]-3-phenyl-1,2-dihydropyridin-2-one], the inhibition at 0.01 µM came to 3%.
Still for that read-out and setting: the value for `O=c1cc(-c2ccccc2)cnn1CCCCN1CCOCC1` [compound 14, 2-(4-morpholinobutyl)-5-phenylpyridazin-3(2H)-one] was 2.1%.
Still for that read-out and setting: the value for `O=c1c(-c2ccccc2)ccnn1CCCCN1C2CCC1CC(O)C2` (centres unmarked) [compound 16, 2-(4-(3-hydroxy-8-azabicyclo[3.2.1]octan-8-yl)butyl)-4-phenylpyridazin-3(2H)-one] was 4.8%.
